From paper PMC4865847, “Putative histidine kinase inhibitors with antibacterial effect against multi-drug resistant clinical isolates identified by in vitro and in silico screens” (Scientific Reports, 2016)
Converted amounts (≈) assume the structure as drawn. “And” between values parts separate entries of the source, which are not always exact repeats. Equal entries are not always repeated. Where two headings read alike, the source gives them in different places. Marks after values point to notes of the source that are not given here.

Legend:
S. aureus PhoR (PhoR^S) [1] = target: T1, S. aureus PhoR (PhoR^S) (Staphylococcus aureus, UniProt Q2FXN7); assay: In vitro autophosphorylation kinase assay with γ-32P-ATP, PhoR^S; format: biochemical; settings: for IC50: IC50 PhoR^S, autophosphorylation, one time point (30 sec), 10% DMSO; for inhibition at 2000 µM: read-out: inhibition of PhoR^S autophosphorylation
T1 sequence (Q2FXN7 entry or part of it): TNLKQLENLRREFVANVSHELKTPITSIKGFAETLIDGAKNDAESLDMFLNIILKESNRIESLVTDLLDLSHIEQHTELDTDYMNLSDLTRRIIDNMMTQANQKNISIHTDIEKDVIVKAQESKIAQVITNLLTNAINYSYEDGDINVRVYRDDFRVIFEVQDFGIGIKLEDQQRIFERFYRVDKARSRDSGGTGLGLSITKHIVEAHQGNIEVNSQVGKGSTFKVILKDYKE
Procedure, shortened: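 ≈4 μM HK incubated with up to 20 mM fragment in 50 mM Tris HCl pH 8.5, 50 mM KCl, 5 mM MgCl2, 0.5 mM EDTA, 0.1 mM DTT; started with γ-32P-ATP (0.03–0.06 μM ATP final). Quenched with SDS sample buffer/EDTA, run on SDS-PAGE unheated, phosphoprotein quantified by phosphor-imaging.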

Staphylococcus aureus = assay: Antibacterial susceptibility testing (MIC/MBC), S. aureus; format: cell-based
Experimental: (§1) Minimal inhibitory concentrations (MICs) were determined following a standard double-dilution method. […] For S. pneumoniae MICs were determined by adapting the standard double-dilution method to anaerobic conditions and of this microorganism (use of Todd Hewitt Yeast extract with 200 U/mL of catalase and continuous monitoring of growth).

[2] = system: Staphylococcus epidermidis; assay: Antibacterial susceptibility testing (MIC/MBC), S. epidermidis; format: cell-based
Experimental: as §1

Escherichia coli = assay: Antibacterial susceptibility testing (MIC/MBC), E. coli; format: cell-based; settings: Escherichia coli
Experimental: as §1

Streptococcus suis = assay: Antibacterial susceptibility testing (MIC), S. suis; format: cell-based; settings: Streptococcus suis, read-out: MIC Streptococcus suis 3881/S10, strain 3881/S10
Procedure, shortened: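 Compounds were serially double-diluted against each strain. The lowest concentration with no visible growth was recorded as the MIC. Dilutions around the MIC were then plated or regrown in MH medium to define the MBC. Pneumococcal testing ran anaerobically with catalase (200 U/mL) in Todd Hewitt yeast extract under continuous growth monitoring.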

Streptococcus pneumoniae = assay: Antibacterial susceptibility testing (MIC), S. pneumoniae; format: cell-based; settings: strain 49619
Experimental: Bacterial strains used in this study for antibacterial susceptibility testing (Table S5) were propagated using standard microbiological procedures. Minimal inhibitory concentrations (MICs) were determined following a standard double-dilution method. MICs were recorded as the lowest concentration of the compound where no visible growth was observed. After plating the dilutions around the MIC or growing them in fresh MH media, minimal bactericidal concentration (MBC) was recorded as the lowest concentration of the compound at which no colonies were formed or no growth was observed, respectively. For S. pneumoniae MICs were determined by adapting the standard double-dilution method to anaerobic conditions and of this microorganism (use of Todd Hewitt Yeast extract with 200 U/mL of catalase and continuous monitoring of growth).

Acinetobacter baumannii = assay: Antibacterial susceptibility testing (MIC), A. baumannii; format: cell-based
Procedure, shortened: (§2)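 Susceptibility is given as MIC by the standard double-dilution method, defined as no visible growth. For S. pneumoniae, conditions were anaerobic with Todd Hewitt yeast extract plus 200 U/mL catalase.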

[3] = system: Stenotrophomonas maltophilia; assay: Antibacterial susceptibility testing (MIC), S. maltophilia; format: cell-based
Procedure, shortened: as §2

Klebsiella pneumoniae = assay: Antibacterial susceptibility testing (MIC), K. pneumoniae; format: cell-based; settings: for MIC: Klebsiella pneumoniae, ATCC700603, strain ATCC 700603; for MIC K. pneumoniae ATCC700603: strain ATCC 700603
Procedure, shortened: as §2

Pseudomonas aeruginosa = assay: Antibacterial susceptibility testing (MIC), P. aeruginosa; format: cell-based; settings: strain ATCC 27853; for MIC: Pseudomonas aeruginosa, ATCC27853
Procedure, shortened: as §2

Hemolysis assay = format: cell-based; settings: human
Experimental: Hemolytic activity against human erythrocytes taken from a healthy donor was measured as previously described. The hemolysis experiments were carried out in accordance with the guidelines of the United Arab Emirates University (UAEU) Research Ethics Review Board. All experimental protocols were approved by the Research Ethics Review Board of UAEU and informed consent was obtained from all donors.

E. coli PhoR (PhoR^E) = target: T2, E. coli PhoR (PhoR^E) (Escherichia coli, UniProt P08400); assay: Aggregation analysis by native-PAGE, PhoR^E; settings: 2 mM (S5 and S6 5 mM), 10% DMSO
T2 construct: The catalytic portion (DHp and CA domain) of E. coli PhoR (PhoR^E); made in house; host or cells: E. coli RIL
T2 sequence (P08400 210-425): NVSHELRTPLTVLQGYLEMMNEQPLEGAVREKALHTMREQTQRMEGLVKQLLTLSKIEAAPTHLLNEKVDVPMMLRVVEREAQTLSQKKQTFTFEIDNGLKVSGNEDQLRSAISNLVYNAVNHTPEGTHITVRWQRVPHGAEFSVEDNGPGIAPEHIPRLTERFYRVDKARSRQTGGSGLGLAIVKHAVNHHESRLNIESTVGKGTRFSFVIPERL
Experimental: (§3) E. coli PhoR and EnvZ, and S. aureus PhoR ([…], final concentration) were prepared in kinase buffer. […] DMSO in the assays was maintained to a final concentration 10% (v/v). After 30 min of incubation at room temperature Native polyacrylamide gel electrophoresis (Native-PAGE) loading buffer was added and samples loaded. Coomassie blue staining was used for protein visualization.

S. aureus PhoR (PhoR^S) [4] = target: T1, S. aureus PhoR (PhoR^S); assay: Aggregation analysis by native-PAGE, PhoR^S; settings: 2 mM (S5 and S6 5 mM), 10% DMSO
Experimental: as §3

[5] = Staphylococcus aureus, ATCC reference strain 25293, read-out: MIC S. aureus 25293
[6] = Staphylococcus aureus, DSM20231, strain DSM 20231, read-out: MIC S. aureus DSM 20231
[7] = Staphylococcus aureus, MRSA clinical isolate 127/08, read-out: MIC S. aureus 127/08
[8] = Staphylococcus aureus, MRSA clinical isolate 145/08, read-out: MIC S. aureus 145/08
[9] = Staphylococcus aureus, MRSA clinical isolate 274/08, read-out: MIC S. aureus 274/08
[10] = Staphylococcus aureus, MRSA, MRSA clinical isolate S908, read-out: MIC S. aureus S908
[11] = Staphylococcus aureus, MRSA, MRSA clinical isolate T4/6, read-out: MIC S. aureus T4/6
[12] = Staphylococcus aureus, MRSA, MRSA clinical isolate V4180, read-out: MIC S. aureus V4180
[13] = Staphylococcus aureus, MRSA, summary over susceptible MRSA clinical isolates, read-out: MICs for MRSA strains
[14] = Staphylococcus epidermidis, DSM20044, strain DSM 20044, read-out: MIC S. epidermidis DSM 20044
[15] = Staphylococcus epidermidis, clinical isolate T7/3, read-out: MIC S. epidermidis T7/3
[16] = Staphylococcus epidermidis, clinical isolate T37/8, read-out: MIC S. epidermidis T37/8
[17] = Staphylococcus epidermidis, clinical isolate T6119, read-out: MIC S. epidermidis T6119
[18] = Staphylococcus epidermidis, strain RP62A (biofilm producer), read-out: MIC S. epidermidis RP62A
[19] = Staphylococcus epidermidis, strain RP62A/1 (non-biofilm producer), read-out: MIC S. epidermidis RP62A/1
[20] = ATCC25276, strain ATCC 25276, read-out: MIC E. coli ATCC 25276
[21] = strain CFT 073, read-out: MIC E. coli CFT 073
[22] = MDR clinical isolate NM8, read-out: MIC A. baumannii NM8
[23] = MDR clinical isolate NM35, read-out: MIC A. baumannii NM35
[24] = MDR clinical isolate NM75, read-out: MIC A. baumannii NM75
[25] = MDR clinical isolate NM109, read-out: MIC A. baumannii NM109
[26] = MDR clinical isolate NM124, read-out: MIC A. baumannii NM124
[27] = clinical isolate B5/5, read-out: MIC S. maltophilia B5/5
[28] = clinical isolate B6/2, read-out: MIC S. maltophilia B6/2
[29] = clinical isolate B32/1, read-out: MIC S. maltophilia B32/1

CC(=O)Nc1cccc(-c2ccccc2Cl)c1 [S1.7, N-[3-(2-chlorophenyl)phenyl]acetamide]
IC50 (S. aureus PhoR (PhoR^S) [1]): 1000 µM and ~1000 µM
inhibition at 2000 µM (S. aureus PhoR (PhoR^S) [1]): > 75%
MIC (Staphylococcus aureus; [5]): 125 mg/L (≈ 509 µM)
MIC (Staphylococcus aureus; [6]): 250 mg/L (≈ 1020 µM)
MIC (Staphylococcus aureus; [7]): > 500 mg/L
MIC (Staphylococcus aureus; [8]): > 500 mg/L
MIC (Staphylococcus aureus; [9]): 250 mg/L (≈ 1020 µM)
MIC (Staphylococcus aureus; [10]): > 500 mg/L
MIC (Staphylococcus aureus; [11]): 250 mg/L (≈ 1020 µM)
MIC (Staphylococcus aureus; [12]): > 500 mg/L
MIC (Staphylococcus aureus; [13]): ≥ 250 mg/L
MIC S. aureus DSM 20231 (Staphylococcus aureus; strain DSM 20231): 250^# μg/ml
bacteriostatic or bactericidal for S. aureus DSM 20231 (Staphylococcus aureus; strain DSM 20231): bacteriostatic
MIC [2, 14]: > 500 mg/L
MIC [2, 15]: > 500 mg/L
MIC [2, 16]: > 500 mg/L
MIC [2, 17]: > 500 mg/L
MIC [2, 18]: > 500 mg/L
MIC [2, 19]: > 500 mg/L
MIC (Escherichia coli; [20]): > 500 mg/L
MIC (Escherichia coli; [21]): > 500 mg/L
MIC (Streptococcus suis): > 500 mg/L
MIC (Streptococcus pneumoniae): 128 mg/L (≈ 521 µM)
MIC (Acinetobacter baumannii; [22]): > 500 mg/L
MIC (Acinetobacter baumannii; [23]): > 500 mg/L
MIC (Acinetobacter baumannii; [24]): > 500 mg/L
MIC (Acinetobacter baumannii; [25]): > 500 mg/L
MIC (Acinetobacter baumannii; [26]): > 500 mg/L
MIC [3, 27]: > 500 mg/L
MIC [3, 28]: > 500 mg/L
MIC [3, 29]: > 500 mg/L
MIC (Klebsiella pneumoniae): > 500 mg/L
MIC K. pneumoniae ATCC700603 (Klebsiella pneumoniae): >500 mg/L
MIC (Pseudomonas aeruginosa): > 500 mg/L
MIC P. aeruginosa ATCC 27853 (Pseudomonas aeruginosa): >500 mg/L
HC50 (Hemolysis assay): > 500 µg/mL
HK aggregation, PhoR^E (E. coli PhoR (PhoR^E)): do not cause HK aggregation
HK aggregation, PhoR^S (S. aureus PhoR (PhoR^S) [4]): do not cause HK aggregation

CC[C@H](c1ccc(O)cc1)[C@@H](CC)c1ccc(F)cc1 [S1.13, 4-[(3S,4R)-4-(4-fluorophenyl)hexan-3-yl]phenol]
IC50 (S. aureus PhoR (PhoR^S) [1]): 212 µM
inhibition at 2000 µM (S. aureus PhoR (PhoR^S) [1]): > 75%
MIC (Staphylococcus aureus; [5]): 8 mg/L (≈ 29.4 µM)
MBC (Staphylococcus aureus; Staphylococcus aureus, DSM20231, strain DSM 20231, read-out: MBC S. aureus DSM 20231): 33 mg/L (≈ 121 µM)
MIC (Staphylococcus aureus; [6]): 8 mg/L (≈ 29.4 µM)
MIC (Staphylococcus aureus; [7]): 16 mg/L (≈ 58.7 µM)
MIC (Staphylococcus aureus; [8]): 8 mg/L (≈ 29.4 µM)
MIC (Staphylococcus aureus; [9]): 16 mg/L (≈ 58.7 µM)
MIC (Staphylococcus aureus; [10]): 16 mg/L (≈ 58.7 µM)
MIC (Staphylococcus aureus; [11]): 8 mg/L (≈ 29.4 µM)
MIC (Staphylococcus aureus; [12]): 8 mg/L (≈ 29.4 µM)
MIC (Staphylococcus aureus; Staphylococcus aureus, MRSA, summary over strains, read-out: MICs for the S. aureus reference strains and the MRSA strains): 8 to 16 mg/L (≈ 29.4 to 58.7 µM)
MIC (Staphylococcus aureus; [13]): 8 to 16 mg/L (≈ 29.4 to 58.7 µM)
MBC S. aureus DSM 20231 (Staphylococcus aureus; strain DSM 20231): 31 mg/L (≈ 114 µM)
MIC S. aureus DSM 20231 (Staphylococcus aureus; strain DSM 20231): 8^¥ μg/ml
bacteriostatic or bactericidal for S. aureus DSM 20231 (Staphylococcus aureus; strain DSM 20231): bactericidal
MBC ([2]; Staphylococcus epidermidis, DSM20044, strain DSM 20044): 8 mg/L (≈ 29.4 µM)
MIC [2, 14]: 1 mg/L (≈ 3.67 µM)
MIC [2, 15]: 8 mg/L (≈ 29.4 µM)
MIC [2, 16]: 16 mg/L (≈ 58.7 µM)
MIC [2, 17]: 8 mg/L (≈ 29.4 µM)
MIC [2, 18]: 8 mg/L (≈ 29.4 µM)
MIC [2, 19]: 8 mg/L (≈ 29.4 µM)
MIC ([2]; Staphylococcus epidermidis, summary over clinical isolates, read-out: MICs for S. epidermidis clinical isolates): 8 to 16 mg/L (≈ 29.4 to 58.7 µM)
MIC S. epidermidis DSM 20044 ([2]; strain DSM 20044): 1^¥ μg/ml
bacteriostatic or bactericidal for S. epidermidis DSM 20044 ([2]; strain DSM 20044): bactericidal
MIC (Escherichia coli; [20]): > 500 mg/L
MIC (Escherichia coli; [21]): > 500 mg/L
MIC (Streptococcus suis): 8 mg/L (≈ 29.4 µM)
MIC (Streptococcus pneumoniae): 16 mg/L (≈ 58.7 µM)
MIC (Acinetobacter baumannii; [22]): > 500 mg/L
MIC (Acinetobacter baumannii; [23]): > 500 mg/L
MIC (Acinetobacter baumannii; [24]): > 500 mg/L
MIC (Acinetobacter baumannii; [25]): > 500 mg/L
MIC (Acinetobacter baumannii; [26]): > 500 mg/L
MIC [3, 27]: > 500 mg/L
MIC [3, 28]: > 500 mg/L
MIC [3, 29]: > 500 mg/L
MIC (Klebsiella pneumoniae): > 500 mg/L
MIC K. pneumoniae ATCC700603 (Klebsiella pneumoniae): >500 mg/L
MIC (Pseudomonas aeruginosa): > 500 mg/L
MIC P. aeruginosa ATCC 27853 (Pseudomonas aeruginosa): >500 mg/L
HC50 (Hemolysis assay): 277 µg/mL
HK aggregation, PhoR^E (E. coli PhoR (PhoR^E)): do not cause HK aggregation
HK aggregation, PhoR^S (S. aureus PhoR (PhoR^S) [4]): do not cause HK aggregation
